Structures are written as SMILES.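 48-hour exposure; five concentrations; linearly interpolated endpoints. GI50 = concentration required for 50% inhibition of growth.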 The source made the active and inactive calls. No stated cut-off is given here; in the data, active = GI50 up to about 1.1 µM and inactive = higher.

Among the test systems are ACHN; HCC 2998; HL-60; HT-29; IGROV-1; K562; KM-20L2; OVCAR-4; RXF 393; SF-295; SF-539; SK-MEL-28; SK-OV-3; UACC-257; UACC-62; SN12C; HOP-92; MDA-MB-435; PC-3; T47D.
Common to all, as to experiment: NCI tumour cell line growth inhibition, 48 h

For the compound `C[C@]12CCC(=O)C=C1CC[C@@H]1C2CC[C@]2(C)Nc3[nH]ncc3CC12` (stereo not given in full), the GI50 with ACHN, in the test with HCC 2998, with HL-60, in the test with HT-29, in the test with IGROV-1 and with K562 was > 100 µM (inactive) in each case. Further, the GI50 in the test with KM-20L2 was > 100 µM (inactive); with OVCAR-4 it was > 100 µM (inactive); with RXF 393, > 100 µM (inactive); with SF-295, 94.2 µM (inactive); in the test with SF-539, > 100 µM (inactive); with SK-MEL-28, > 100 µM (inactive). Also, the GI50 with SK-OV-3, in the test with UACC-257 and with UACC-62 was > 100 µM (inactive) each time.
Regarding `CC1(C)OC2C(CO)OC(N/C(=N/C#N)Oc3ccccc3)C2O1` (stereo not given), the GI50 in the test with ACHN, with HCC 2998, in the test with HL-60, with HT-29, in the test with IGROV-1 and in the test with K562 was > 100 µM (inactive) in each case. Further, the GI50 with KM-20L2, in the test with OVCAR-4, in the test with RXF 393, with SF-295, with SF-539 and in the test with SK-MEL-28 was > 100 µM (inactive) throughout. Besides, the GI50 in the test with SK-OV-3, with SN12C, in the test on UACC-257 and in the test with UACC-62 was > 100 µM (inactive) throughout.
Turning to `Cc1ccc(NC(=O)SCCC(=O)O)cc1`, the GI50 in the test with ACHN was > 100 µM (inactive); in the test on HCC 2998 it was > 100 µM (inactive); in the test on HL-60, > 100 µM (inactive); in the test on HT-29 it was > 100 µM (inactive); in the test on IGROV-1, 47.4 µM (inactive); with K562, > 100 µM (inactive). Besides, the GI50 with KM-20L2, in the test on OVCAR-4, in the test with RXF 393, in the test with SF-295, in the test with SF-539 and in the test with SK-MEL-28 was > 100 µM (inactive) in each case. The GI50 is > 100 µM (inactive) with SN12C, > 100 µM (inactive) with UACC-257 and 45.7 µM (inactive) with UACC-62.
Take `CC1CCC2(CC1)NN=c1s/c(=C\c3ccc(O)cc3)c(=O)n1N2` (stereo not given): the GI50 in the test with HCC 2998, in the test on HL-60, with HT-29, in the test on IGROV-1, in the test on K562 and with KM-20L2 was > 100 µM (inactive) throughout. The GI50 with OVCAR-4, in the test with RXF 393, in the test with SF-295, in the test with SF-539, in the test on SK-MEL-28 and in the test with SK-OV-3 was > 100 µM (inactive) each time. Moreover, the GI50 in the test with SN12C and in the test on UACC-62 was > 100 µM (inactive) in each case.
Consider `CN1CCCC2[C@@H]3CCC4c5nonc5CC[C@]4(C)C3CC[C@@]21C` (stereo not given in full), for which the GI50 is > 100 µM (inactive) in the test on ACHN; 38.1 µM (inactive) in the test with HT-29; > 100 µM (inactive) in the test on IGROV-1; 67.8 µM (inactive) with K562; 23.3 µM (inactive) with KM-20L2; > 100 µM (inactive) in the test on OVCAR-4. Also, the GI50 in the test with RXF 393 is 50.1 µM (inactive); in the test on SF-295 it was 43.2 µM (inactive); with SF-539 it was > 100 µM (inactive); in the test with SK-MEL-28 it was 37.6 µM (inactive); in the test on SK-OV-3, 17.9 µM (inactive); with SN12C, 98.6 µM (inactive). The GI50 was 35 µM (inactive) in the test on UACC-257 and 24.7 µM (inactive) in the test with UACC-62.
As to `CCN1C(=O)N2C(OC)c3ccccc3C(Br)C2(OC)C1=O` (stereo not given), the GI50 in the test with HCC 2998, in the test on HL-60, in the test with IGROV-1, in the test on K562, with KM-20L2 and in the test on OVCAR-4 was > 100 µM (inactive) in each case. Further, the GI50 with SF-295, with SK-MEL-28, in the test on SK-OV-3, with SN12C and in the test on UACC-62 was > 100 µM (inactive) in each case.
Consider `Cn1c(=O)c2ccccc2c2nc3ccccc3nc21`, for which the GI50 in the test with ACHN, in the test on HCC 2998, in the test with HT-29, in the test on IGROV-1, in the test with K562 and with KM-20L2 was > 100 µM (inactive) each time. Besides, the GI50 with RXF 393 was > 100 µM (inactive); with SF-295 it was 59.2 µM (inactive); in the test on SF-539, 92.3 µM (inactive); with SK-MEL-28, > 100 µM (inactive); with SK-OV-3, 37.2 µM (inactive); in the test with SN12C it was > 100 µM (inactive). For the same compound, the GI50 in the test on UACC-257 and in the test with UACC-62 was > 100 µM (inactive) in each case.
Regarding `CNC(=S)N(C)C(=S)Nn1c(=O)c(C)nn(C)c1=S`, the GI50 with ACHN, in the test with HL-60, with HOP-92, in the test with HT-29, in the test with IGROV-1 and with K562 was > 100 µM (inactive) each time. The GI50 with KM-20L2, with OVCAR-4, in the test on RXF 393, with SF-295, in the test on SF-539 and with SK-MEL-28 was > 100 µM (inactive) each time. In addition, the GI50 with SN12C, with UACC-257 and in the test on UACC-62 was > 100 µM (inactive) throughout.
With `C[O+]=C1C=CC(=C2SC(c3ccccc3)(c3ccccc3)c3ccccc32)C=C1.[O-][Cl+3]([O-])([O-])[O-]`, the GI50 in the test with ACHN is 24.8 µM (inactive); with HCC 2998, 26.5 µM (inactive); in the test on HL-60 it was 17 µM (inactive); in the test on HOP-92, 16.6 µM (inactive); in the test with HT-29, 15 µM (inactive); in the test with IGROV-1 it was 33 µM (inactive). For the same compound, the GI50 in the test with K562 is 26.7 µM (inactive); with MDA-MB-435, 18.6 µM (inactive); with OVCAR-4, 14.6 µM (inactive); with PC-3, 20.9 µM (inactive); in the test on RXF 393, 11.8 µM (inactive); with SF-295, 22.1 µM (inactive). The GI50 with SF-539 is 18.7 µM (inactive); with SK-MEL-28, 21.1 µM (inactive); with SK-OV-3, 38 µM (inactive); in the test with SN12C, 20 µM (inactive); in the test on T47D, 20.8 µM (inactive); in the test with UACC-257, 16.6 µM (inactive). Moreover, the GI50 in the test on UACC-62 is 18.7 µM (inactive).
On to `O=C1c2ccccc2-c2nnc(-c3ccc(Cl)cc3)cc21`, for which the GI50 with ACHN, in the test on HCC 2998, in the test with HL-60, in the test on HOP-92, with HT-29 and in the test with IGROV-1 was > 10 µM (inactive) throughout. The GI50 with K562, in the test on MDA-MB-435, in the test with OVCAR-4, in the test with PC-3, in the test on RXF 393 and in the test on SF-295 was > 10 µM (inactive) each time. In addition, the GI50 with SF-539, in the test on SK-MEL-28, in the test on SK-OV-3, in the test on SN12C, in the test on T47D and with UACC-257 was > 10 µM (inactive) throughout. Moreover, the GI50 with UACC-62 is > 10 µM (inactive).
As for `CCCC1CCC(=C2C(=O)CCC2=O)O1` (stereo not given), the GI50 with ACHN was > 100 µM (inactive); in the test with HCC 2998 it was > 100 µM (inactive); in the test on HL-60, 0.364 µM (active); in the test on HOP-92, > 100 µM (inactive); in the test on HT-29 it was > 100 µM (inactive); in the test with IGROV-1, > 100 µM (inactive). Besides, the GI50 in the test on K562, with MDA-MB-435, in the test on OVCAR-4, in the test with PC-3, in the test on RXF 393 and in the test with SF-295 was > 100 µM (inactive) each time. Besides, the GI50 with SF-539, with SK-MEL-28, in the test on SK-OV-3, with SN12C, in the test on T47D and in the test with UACC-257 was > 100 µM (inactive) throughout. The GI50 with UACC-62 is > 100 µM (inactive).
For the compound `Oc1ccccc1/C=N/c1ccc(-c2nc3ccccc3s2)cc1`, the GI50 with ACHN was 22.4 µM (inactive); with HCC 2998 it was 20.3 µM (inactive); in the test on HL-60, 11.8 µM (inactive); in the test with HOP-92 it was 17.7 µM (inactive); in the test on HT-29, 30.8 µM (inactive); in the test on IGROV-1 it was 28.2 µM (inactive). Further, the GI50 was 24.6 µM (inactive) with K562; 26.6 µM (inactive) in the test on MDA-MB-435; 30.2 µM (inactive) in the test with OVCAR-4; 18.7 µM (inactive) with PC-3; 28.5 µM (inactive) in the test on RXF 393; 24.1 µM (inactive) in the test with SF-295. Moreover, the GI50 in the test on SF-539 was 30.8 µM (inactive); with SK-MEL-28, 41.7 µM (inactive); in the test with SK-OV-3 it was 27.2 µM (inactive); with SN12C it was 29.3 µM (inactive); in the test on T47D, 10.4 µM (inactive); in the test with UACC-257, 24 µM (inactive). Also, the GI50 in the test on UACC-62 was 21.2 µM (inactive).
